The record followed here is patent US20230272485A1, “REPLICATION STRESS PATHWAY AGENT COMPOSITIONS AND METHODS FOR TREATING CANCER” (Boundless Bio, Inc., priority 2022, published 2023).

Entries after “also recorded” stand apart in the source; their conditions may differ.

Test [1] concerns gastric cancer cell line SNU16. The test can be described thus: SNU16 cells treated with infigratinib over about 80 days; relative copy number by metaphase DAPI/FISH. It is filed as cell-based. How it is done:
A gastric cancer cell line SNU16 was assessed for the presence of ecDNA using metaphase DAPI/FISH using probes to detect MYC, FGFR2 and EGFR. […] SNU16 cells were then treated with the FGFR inhibitor infigratinib over the course of about 80 days. ecDNA was assessed by metaphase DAPI/FISH and relative copy number for MYC, FGFR2 and EGFR was tracked at day 0 and 5 additional time points.

Test [2] has as its system gastric cancer CDX SNU16 mouse model. Briefly: gastric cancer CDX SNU16 mouse model, tumor growth over 50 days and copy number in tumors. It counts as in vivo, mice. How it is done:
To assess the effect of an ecDTx agent on gastric cancer and ecDNA development, a gastric cancer CDX SNU16 mouse model was treated with vehicle only, with infigratinib alone (15 mg/kg PO;QD), the ecDTx CHK1 inhibitor (20 mg/kg SQ;Q2D) or with a combination of infigratinib (15 mg/kg PO;QD) and the ecDTx CHK1 inhibitor (20 mg/kg SQ;Q2D). Tumor growth in the animals was monitored over 50 days. […] The effect of the combination was further assessed by evaluating copy number for MYC and FGFR2 in the tumors from the treated mice. […] FGFR2 amplification was abrogated in the presence of the ecDTx agent alone or when used in combination with infigratinib. The presence of the FGRF2 and MYC amplification on ecDNA was validated by FISH (FIG. 3C).

For a further test, the system named is gastric cancer CDX model. The test can be described thus: gastric cancer CDX model, 7-day multi-dosing experiment. It counts as in vivo, mice. The protocol:
The ecDTx agent was further tested in the gastric cancer CDX model in a 7-day multi-dosing experiment. Mice were treated with vehicle only (PO; QDx 7 days), with infigratinib alone (15 mg/kg PO;QD x 7 days), the ecDTx CHK1 inhibitor (20 mg/kg SC;Q2D x 4 doses) or with a combination of infigratinib and the ecDTx CHK1 inhibitor (same dosing as with individual agents).
Tumor volume at day 6 is shown in the box and whisker graph in FIG. 4B. […] Copy number for MYC and FGFR2 was evaluated in the tumors from the treated mice. […] This increase was abrogated in the presence of the ecDTx agent. MYC and FGFR2 expression was also evaluated in the tumors of the treated mice (FIG. 4D).

Test [3] concerns lung cancer cell line (H2170). Briefly: H2170 cells treated with paclitaxel, ABCB1 transporter amplified ecDNA (FISH, qPCR). It counts as cell-based. How it is done:
The lung cancer cell line (H2170) was assessed for the presence of oncogene-amplified ecDNA. […] The cell line was treated with paclitaxel and the presence and level of ecDNA was assessed for ABCB1 transporter amplified ecDNA. […] Gene copy number for the ABCB1 transporter was assessed by qPCR.
For orientation: Real-time PCR tracks product formation cycle by cycle.

The test system of test [4] is colorectal cancer line COLO320 HSR. Briefly: COLO320 HSR cells treated with paclitaxel, ecDNA by metaphase FISH and PCR gene panel.
Test [5] has as its system Glioblastoma cell line (GBM39). Briefly: GBM39 cells treated with erlotinib, FISH for MYC amplification. It is filed as cell-based. The conditions noted are these: erlotinib 1 uM, 4 weeks, vs control cells. How it is done: Glioblastoma cell line (GBM39) was assessed for ecDNA in untreated samples and cells treated with the EGFR inhibitor erlotinib (1 uM). Cells were treated for 4 weeks and then assessed by FISH for amplification of MYC ecDNA. […] Cells treated with the erlotinib developed brightly staining MYC amplification on ecDNA. Amplification of MYC on ecDNA and on HSR was quantified from the FISH images in control and treated cells.

The mark [6] stands for this setting: tumors from treated mice, 50-day study.

Turning to `CCN1CCN(c2ccc(Nc3cc(N(C)C(=O)Nc4c(Cl)c(OC)cc(OC)c4Cl)ncn3)cc2)CC1` [infigratinib], the “copy number of FGFR2” value in test [1] (after about 10 days of treatment) is “reduced dramatically”. Moreover, in test [1] (treatment over about 80 days), the “copy number of EGFR” value is “rapidly increased” and the “copy number of MYC” value is on record as “rapidly increased”. In addition, in test [2] (compared to vehicle, over 50 days, infigratinib 15 mg/kg PO QD, ecDTx CHK1 inhibitor 20 mg/kg SQ Q2D), the tumor growth result is recorded as “decreased tumor growth”. In addition, the “trend at the later time points (resistance)” value in test [2] (later time points of 50 days, infigratinib 15 mg/kg PO QD) is “suggested resistance was beginning to develop”. In addition, in test [2] (setting [6]), the “copy number of FGFR2 in the tumors” value is recorded as “dramatically higher than the other groups” and the “copy number of MYC in the tumors” value is “relatively similar”. Besides, in the test with gastric cancer CDX model, the “FGFR2 expression in the tumors” value is listed as “markedly increased”, the “MYC expression in the tumors” value was “similar”, the “copy number of FGFR2 in the tumors” value was “dramatically higher than the other groups” and the “copy number of MYC in the tumors” value is “relatively similar”.

Turning to `CC(=O)O[C@H]1C(=O)[C@@]2(C)[C@H]([C@H](OC(=O)c3ccccc3)[C@]3(O)C[C@H](OC(=O)[C@H](O)[C@@H](NC(=O)c4ccccc4)c4ccccc4)C(C)=C1C3(C)C)[C@]1(OC(C)=O)CO[C@@H]1C[C@@H]2O` [paclitaxel], the “copy number of the ABCB1 transporter amplified ecDNA” value in test [3] (FISH, vs untreated controls) is on record as “marked increase”. The “gene copy number for the ABCB1 transporter” value in test [3] (qPCR, vs untreated control) was “dramatically higher; also recorded: significant increase”. In addition, the “amplification of various genes” value in test [4] (PCR with a panel of genes, paclitaxel-treated cells) was “highest amount of amplification was seen with ABCB1”. Besides, the “copy number of ecDNA harboring the ABCB1 drug efflux pump” value in test [4] (paclitaxel resistant cells, metaphase FISH) is recorded as “high copy number”.

On to `C#Cc1cccc(Nc2ncnc3cc(OCCOC)c(OCCOC)cc23)c1` [erlotinib], for which, in test [5], the “MYC amplification on HSR” value is recorded as “did not show any significant difference” and the “MYC amplification on ecDNA” value was “dramatic increase; also recorded: significant increase”.
